Results: patent US9573954B2, “Pyrazolopyrimidine compounds” (University Health Network, priority 2012, dated 2017)

How the values were obtained:
[1] = test system: colon cancer cells (HCT116); assay: Cancer cell line growth inhibition, Sulforhodamine B assay, HCT116; assay type: cell-based; conditions: Homo sapiens, HCT-116, 120 h, Table 2; HCT116, 5 days, SRB; read-out: Cancer Cell Line GI50 Range HCT116
In short: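 HCT116 cells, 1000–4000 per well, seeded 24 h ahead, then treated 5 days with compound at 10 nM to 50 μM final in DMEM with 10% FBS. Growth measured by sulforhodamine B staining after TCA fixation, A570; GI50 from inhibition relative to DMSO-only cells.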

[2] = test system: breast cancer cells (MDA-MB-231); assay: Cancer cell line growth inhibition, Sulforhodamine B assay, MDA-MB-231; assay type: cell-based; conditions: Homo sapiens, 120 h; Table 2; MDA-MB-231, 5 days, SRB; read-out: Cancer Cell Line GI50 Range MDA-MB-231
Method: Breast cancer cells (MDA-MB-231 and MDA-MB-468), colon cancer cells (HCT116) and ovarian cancer cells (PA-1 and OVCAR-3) were seeded (1000 to 4000 in 80 μl per well depending on the cell growth rate) into 96 well plates 24 hours before compound overlay. Compounds were prepared as 10 mM stock solutions in 100% DMSO which were diluted with DMEM (Dulbecco's Modified Eagle's Medium) cell growth Medium (Invitrogen, Burlington, ON, Canada) containing 10% FBS (Fetal Bovine Serum) to concentrations ranging from 50 nM to 250 μM. Aliquots (20 μl) from each concentration were overlaid to 80 μl of the pre-seeded cells in the 96 well plates to make final concentrations of 10 nM to 50 μM. The cells were cultured for 5 days before the Sulforhodamine B assay (SRB) was performed to determine the compound's cell growth inhibition activity.
Sulforhodamine B (purchased from Sigma, Oakville, ON, Canada) is a water-soluble dye that binds to the basic amino acids of the cellular proteins. Thus, colorimetric measurement of the bound dye provides an estimate of the total protein mass that is related to the cell number. the cells are fixed in situ by gently aspirating off the culture media and adding 50 μl ice cold 10% Trichloroacetic Acid (TCA) per well and incubate at 4° C. for 30-60 min, The plates are washed with H2O five times and allowed to air dry for 5 min. Addition of 50 μl 0.4% (w/v) SRB solution in 1% (v/v) acetic acid to each well and incubation for 30 min at RT completes the staining reaction. Following staining, plates are washed four times with 1% acetic acid to remove unbound dye and then allowed to air dry for 5 min. The stain is solubilized with 100 μl of 10 mM Tris pH 10.5 per well. Absorbance is read at 570 nm.
The percentage (%) of relative growth inhibition was calculated by comparing to DMSO treated only cells (100%). GI50's were determined for compounds with cytotoxic activity. The GI50 was calculated using GraphPad PRISM software (GraphPad Software, Inc., San Diego, Calif., USA).
In Table 2 below, GI50 value ranges for compound examples against breast cancer cell lines (MDA-MB-231), colon cancer cell lines (HCT116) and ovarian cancer cell lines (PA-1) are given.

[3] = target: T1, human TTK (Homo sapiens, UniProt P33981); assay: TTK inhibition assay (indirect ELISA); assay type: biochemical; conditions: Table 2; 16 μM ATP (asterisk); read-out: TTK IC50 Range
T1 construct: Active TTK was purchased from Invitrogen as an amino terminal GST fusion of full length human TTK; purchased Invitrogen
T1 sequence (P33981 1-857): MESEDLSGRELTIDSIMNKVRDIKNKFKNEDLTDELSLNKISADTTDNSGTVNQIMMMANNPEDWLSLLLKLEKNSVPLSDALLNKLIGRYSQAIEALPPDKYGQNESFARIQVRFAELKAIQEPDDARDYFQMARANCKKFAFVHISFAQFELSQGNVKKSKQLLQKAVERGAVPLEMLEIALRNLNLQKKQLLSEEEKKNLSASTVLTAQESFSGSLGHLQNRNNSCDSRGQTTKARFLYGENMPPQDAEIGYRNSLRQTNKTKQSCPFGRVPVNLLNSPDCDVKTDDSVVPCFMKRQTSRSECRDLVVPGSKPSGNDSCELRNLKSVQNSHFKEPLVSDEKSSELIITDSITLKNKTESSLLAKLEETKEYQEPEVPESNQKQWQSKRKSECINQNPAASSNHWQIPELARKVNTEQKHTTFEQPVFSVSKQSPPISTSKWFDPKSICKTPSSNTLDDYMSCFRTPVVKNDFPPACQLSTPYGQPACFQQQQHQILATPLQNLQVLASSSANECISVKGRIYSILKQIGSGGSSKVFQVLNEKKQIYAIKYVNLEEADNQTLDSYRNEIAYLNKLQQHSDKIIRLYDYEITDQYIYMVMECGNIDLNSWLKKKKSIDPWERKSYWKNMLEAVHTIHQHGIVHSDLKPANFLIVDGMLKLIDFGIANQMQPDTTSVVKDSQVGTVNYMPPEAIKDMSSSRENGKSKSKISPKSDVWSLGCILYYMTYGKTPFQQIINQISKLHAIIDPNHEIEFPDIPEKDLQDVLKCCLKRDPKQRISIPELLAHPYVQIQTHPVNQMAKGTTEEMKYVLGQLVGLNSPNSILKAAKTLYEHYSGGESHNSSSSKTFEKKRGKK
In short: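 Activity detected by indirect ELISA after compounds sat with full-length GST-TTK for 5 min prior to starting the reaction with ATP. IC50 came from a four-parameter logistic curve of % inhibition, calculated against background and uninhibited control wells.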

[4] = test system: Colon 12 tumor initiating cells; assay: Tumor-initiating cell growth inhibition, Alamar Blue assay, colon TICs; assay type: cell-based; conditions: 216 h; Table 2; colon TICs, 9 days, Alamar Blue; read-out: Tumor Initiating Cell GI50 Range Colon 12
In short: (§1)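 Colon TICs (4,000/well, non-TC plates) and ovarian TICs (1,000/well, TC plates) kept in serum-free DMEM:F12 with B-27, heparin, bFGF and EGF. Compound added after 24 h at 0.1% DMSO, then 9 days (colon) or 6 days (ovarian) at 37° C. GI50 from Alamar Blue fluorescence (ex 544/em 590) after 4 h.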

[5] = test system: ovarian cancer cells (PA-1); assay: Cancer cell line growth inhibition, Sulforhodamine B assay, PA-1; assay type: cell-based; conditions: 120 h; Table 2; PA-1, 5 days, SRB; read-out: Cancer Cell Line GI50 Range PA-1
In short: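 PA-1 ovarian cancer cells seeded 24 h before compound, then exposed to final 10 nM to 50 μM in DMEM/10% FBS for 5 days. Cell mass measured by TCA fixation and sulforhodamine B staining, absorbance 570 nm; GI50 derived from growth inhibition relative to DMSO-treated cells.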

[6] = test system: Ovarian 2393A tumor initiating cells; assay: Tumor-initiating cell growth inhibition, Alamar Blue assay, ovarian TICs; assay type: cell-based; conditions: 144 h; Table 2; ovarian TICs, 6 days, Alamar Blue; read-out: Tumor Initiating Cell GI50 Range Ovarian 2393A
In short: as §1

GI50 [1] [nM] | GI50 [2] [nM] | IC50 [3] [nM] | GI50 [4] [nM] | GI50 [5] [nM] | GI50 [6] [nM] | SMILES
100 to 500 | 100 to 500 | < 100 | 100 to 500 | ≤ 100 | 100 to 500 | Cc1cc(-c2cnn3c(NCCCN4CCOCC4)cc(Oc4ccccc4)nc23)ccc1C(=O)NC1CC1 [Example B19, N-cyclopropyl-2-methyl-4-(7-((3-morpholinopropyl)amino)-5-phenoxypyrazolo[1,5-a]pyrimidin-3-yl)benzamide]
≤ 100 | ≤ 100 | < 100 | ≤ 100 | ≤ 100 | ≤ 100 | Cc1cc(-c2cnn3c(NCCC4CCOCC4)cc(Oc4ccccc4)nc23)ccc1C(=O)NC1CC1 [Example B20, N-cyclopropyl-2-methyl-4-(5-phenoxy-7-((2-(tetrahydro-2H-pyran-4-yl)ethyl)amino)pyrazolo[1,5-a]pyrimidin-3-yl)benzamide]
